Molecular target: T1, WIZ protein (HiBit-WIZ fusion protein) (Homo sapiens, UniProt O95785+Q96SW2)
T1 construct: expressed in transfected cells
Assay: Quantification of WIZ protein levels in HiBit tag fusion protein assay (WIZ HiBit assay in 293T cells)
Format: cell-based
Set-up: remaining activity / Dmax: dose or concentration left out as unconfirmed
Conditions: for Dmax at 25 µM / remaining activity at 25 µM / Dmax / remaining activity: HEK-293T; for Dmax at 25 µM: 100 − Amax; for Dmax at 25 µM / remaining activity at 25 µM: 293T cells; for Dmax at 25 µM / Dmax: read-out: % degradation of WIZ (100 − Amax); for remaining activity at 25 µM: DMSO-normalized, curve-fitted percentage of WIZ-HiBit remaining at 25 uM; for remaining activity at 25 µM / remaining activity: read-out: WIZ Amax; for DC50: WIZ HiBit assay in 293T cells, 10-point, 5-fold dose response, highest concentration 25 μM, about 18 hours, read-out: WIZ AC50
Method in brief: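 Luminescence after LgBit complementation quantified remaining HiBit-WIZ in lysates of single-copy stable 293T lines. Cells dosed ~18 h at 37 °C with 10-point, 5-fold dilutions (highest 25 μM); DMSO set to 100%, fitted curve gave % remaining at 25 μM (Amax).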

T1 sequence (O95785 whole entry, the tested form may be a part): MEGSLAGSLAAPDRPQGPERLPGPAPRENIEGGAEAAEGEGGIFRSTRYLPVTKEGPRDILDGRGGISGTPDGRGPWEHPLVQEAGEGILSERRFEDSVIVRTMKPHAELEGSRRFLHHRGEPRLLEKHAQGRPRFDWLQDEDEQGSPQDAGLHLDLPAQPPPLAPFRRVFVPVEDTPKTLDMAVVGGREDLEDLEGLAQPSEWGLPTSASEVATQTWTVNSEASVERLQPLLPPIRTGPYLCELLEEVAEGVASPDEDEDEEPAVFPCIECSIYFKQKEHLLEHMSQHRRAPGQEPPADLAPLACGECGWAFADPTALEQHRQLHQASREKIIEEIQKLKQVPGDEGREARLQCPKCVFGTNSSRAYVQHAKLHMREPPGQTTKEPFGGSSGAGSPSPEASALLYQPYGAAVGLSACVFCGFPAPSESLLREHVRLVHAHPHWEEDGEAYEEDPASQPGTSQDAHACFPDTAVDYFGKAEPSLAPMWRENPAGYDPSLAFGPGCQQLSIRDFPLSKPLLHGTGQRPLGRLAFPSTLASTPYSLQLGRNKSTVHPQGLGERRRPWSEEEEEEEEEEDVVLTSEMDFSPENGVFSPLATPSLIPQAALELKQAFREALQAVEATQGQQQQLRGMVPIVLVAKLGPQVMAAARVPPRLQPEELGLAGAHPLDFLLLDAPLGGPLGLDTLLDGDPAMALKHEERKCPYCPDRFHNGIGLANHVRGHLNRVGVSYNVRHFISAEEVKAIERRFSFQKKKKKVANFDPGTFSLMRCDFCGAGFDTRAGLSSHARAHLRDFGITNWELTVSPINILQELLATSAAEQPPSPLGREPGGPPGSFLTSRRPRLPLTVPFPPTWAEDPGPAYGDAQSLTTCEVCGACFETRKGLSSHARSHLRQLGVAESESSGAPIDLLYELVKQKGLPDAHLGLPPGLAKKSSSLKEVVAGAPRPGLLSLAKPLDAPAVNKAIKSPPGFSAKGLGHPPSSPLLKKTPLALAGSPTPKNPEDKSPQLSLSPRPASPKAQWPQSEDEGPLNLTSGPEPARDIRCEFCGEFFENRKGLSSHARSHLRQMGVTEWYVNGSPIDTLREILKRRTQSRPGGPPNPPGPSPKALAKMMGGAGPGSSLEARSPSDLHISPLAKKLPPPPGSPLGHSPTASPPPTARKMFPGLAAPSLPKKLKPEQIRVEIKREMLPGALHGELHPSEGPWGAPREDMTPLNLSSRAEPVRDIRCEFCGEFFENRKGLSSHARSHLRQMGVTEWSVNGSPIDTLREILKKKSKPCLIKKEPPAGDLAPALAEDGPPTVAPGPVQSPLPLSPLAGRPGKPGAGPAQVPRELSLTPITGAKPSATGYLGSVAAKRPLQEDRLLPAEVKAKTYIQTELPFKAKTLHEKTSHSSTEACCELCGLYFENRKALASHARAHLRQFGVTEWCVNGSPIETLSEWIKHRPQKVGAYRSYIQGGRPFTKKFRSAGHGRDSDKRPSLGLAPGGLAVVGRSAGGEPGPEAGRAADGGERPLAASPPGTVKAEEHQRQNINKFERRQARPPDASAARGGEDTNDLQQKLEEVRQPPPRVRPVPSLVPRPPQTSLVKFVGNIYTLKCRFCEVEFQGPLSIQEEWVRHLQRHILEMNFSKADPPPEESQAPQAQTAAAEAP
T1 sequence (Q96SW2 whole entry, the tested form may be a part): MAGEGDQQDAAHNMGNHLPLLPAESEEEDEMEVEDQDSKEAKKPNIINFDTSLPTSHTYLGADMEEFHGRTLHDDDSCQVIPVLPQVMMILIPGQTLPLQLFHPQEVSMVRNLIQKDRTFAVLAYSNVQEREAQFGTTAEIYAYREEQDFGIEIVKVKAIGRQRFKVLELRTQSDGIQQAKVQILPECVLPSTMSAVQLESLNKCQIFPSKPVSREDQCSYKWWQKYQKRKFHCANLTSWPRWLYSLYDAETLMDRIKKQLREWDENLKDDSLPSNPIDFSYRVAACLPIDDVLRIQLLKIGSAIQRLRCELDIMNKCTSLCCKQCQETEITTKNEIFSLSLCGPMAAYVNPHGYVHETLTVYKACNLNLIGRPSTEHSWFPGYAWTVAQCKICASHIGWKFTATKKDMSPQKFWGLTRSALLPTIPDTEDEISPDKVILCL
T1 sequence (Q16531 whole entry partner, the tested form may be a part): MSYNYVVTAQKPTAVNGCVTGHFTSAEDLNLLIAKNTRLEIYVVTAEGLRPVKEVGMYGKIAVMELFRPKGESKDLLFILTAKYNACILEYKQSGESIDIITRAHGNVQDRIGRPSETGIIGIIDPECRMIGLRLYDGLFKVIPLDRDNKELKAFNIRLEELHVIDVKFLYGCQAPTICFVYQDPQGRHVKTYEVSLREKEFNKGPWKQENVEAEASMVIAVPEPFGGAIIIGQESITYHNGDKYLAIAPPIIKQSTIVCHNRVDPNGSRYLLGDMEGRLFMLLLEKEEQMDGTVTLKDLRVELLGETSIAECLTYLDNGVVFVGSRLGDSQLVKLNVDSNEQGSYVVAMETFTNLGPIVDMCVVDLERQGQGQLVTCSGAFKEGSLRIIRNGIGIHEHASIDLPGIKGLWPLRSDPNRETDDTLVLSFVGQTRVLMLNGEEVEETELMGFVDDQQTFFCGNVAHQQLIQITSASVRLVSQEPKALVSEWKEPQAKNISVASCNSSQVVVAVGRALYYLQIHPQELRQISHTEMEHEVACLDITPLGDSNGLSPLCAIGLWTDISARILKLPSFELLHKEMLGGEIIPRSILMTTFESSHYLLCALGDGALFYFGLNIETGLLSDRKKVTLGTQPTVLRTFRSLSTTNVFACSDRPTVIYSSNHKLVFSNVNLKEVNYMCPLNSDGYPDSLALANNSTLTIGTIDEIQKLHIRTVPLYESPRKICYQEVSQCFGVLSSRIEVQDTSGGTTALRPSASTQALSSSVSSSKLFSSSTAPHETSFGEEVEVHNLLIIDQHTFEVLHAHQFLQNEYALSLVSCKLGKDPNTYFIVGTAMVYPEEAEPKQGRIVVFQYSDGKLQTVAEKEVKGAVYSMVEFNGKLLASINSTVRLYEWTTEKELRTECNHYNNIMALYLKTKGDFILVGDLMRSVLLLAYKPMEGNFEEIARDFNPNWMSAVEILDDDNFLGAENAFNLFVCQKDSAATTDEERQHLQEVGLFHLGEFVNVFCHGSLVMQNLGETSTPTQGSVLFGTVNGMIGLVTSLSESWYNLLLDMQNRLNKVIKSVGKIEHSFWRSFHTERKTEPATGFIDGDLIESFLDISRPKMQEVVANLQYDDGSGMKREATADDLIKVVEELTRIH

Row | Dmax at 25 µM | remaining activity at 25 µM | DC50 | SMILES | Dmax | remaining activity
1 | 92% | 8% | 15 nM | O=C1CCN(c2cnn3ccc(CC4CCN(S(=O)(=O)C5CCCCC5)CC4)cc23)C(=O)N1 [Example 81] | – | –
2 | 90% | 10% | 33 nM | O=C1CCN(c2cnn3ccc(CC4CCN(S(=O)(=O)C5CCCC5)CC4)cc23)C(=O)N1 [Example 82] | – | –
3 | 89% | 11% | 76 nM | O=C1CCN(c2cnn3ccc(CC4CCN(S(=O)(=O)C5CCOCC5)CC4)cc23)C(=O)N1 [Example 83] | – | –
4 | 87% | 13% | 55 nM | O=C1CCN(c2cnn3ccc(CC4CCN(S(=O)(=O)CC5CC5)CC4)cc23)C(=O)N1 [Example 84] | – | –
5 | 83% | 17% | 38 nM | CC(C)S(=O)(=O)N1CCC(Cc2ccn3ncc(N4CCC(=O)NC4=O)c3c2)CC1 [Example 85] | – | –
6 | 80% | 20% | 27 nM | CCC(C)S(=O)(=O)N1CCC(Cc2ccn3ncc(N4CCC(=O)NC4=O)c3c2)CC1 (stereo not drawn) [Example 86] | – | –
7 | 79% | 21% | 25 nM | CC(C)CS(=O)(=O)N1CCC(Cc2ccn3ncc(N4CCC(=O)NC4=O)c3c2)CC1 [Example 87] | – | –
8 | 78% | 22% | 181 nM | O=C1CCN(c2cnn3ccc(CC4CCN(S(=O)(=O)Cc5ccccc5)CC4)cc23)C(=O)N1 [Example 88] | – | –
9 | 77% | 23% | 285 nM | O=C1CCN(c2cnn3ccc(CC4CCN(S(=O)(=O)C5CC5)CC4)cc23)C(=O)N1 [Example 89] | – | –
10 | 77% | 23% | 2000 nM | CS(=O)(=O)N1CCC(Cc2ccn3ncc(N4CCC(=O)NC4=O)c3c2)CC1 [Example 90] | – | –
11 | 74% | 26% | 150 nM | O=C1CCN(c2cnn3ccc(CC4CCN(S(=O)(=O)c5ccccc5)CC4)cc23)C(=O)N1 [Example 91] | – | –
12 | 69% | 31% | 131 nM | COCCS(=O)(=O)N1CCC(Cc2ccn3ncc(N4CCC(=O)NC4=O)c3c2)CC1 [Example 92] | – | –
13 | 62% | 38% | 6520 nM | COC(=O)N1CCC(Cc2ccn3ncc(N4CCC(=O)NC4=O)c3c2)CC1 [Example 93] | – | –
14 | 62% | 38% | 3990 nM | O=C1CCN(c2cnn3ccc(CC4CCN(C(=O)Oc5ccccc5)CC4)cc23)C(=O)N1 [Example 94] | – | –
15 | 43% | 57% | > 25000 nM | CC(C)COC(=O)N1CCC(Cc2ccn3ncc(N4CCC(=O)NC4=O)c3c2)CC1 [Example 95] | – | –
16 | 42% | 58% | > 25000 nM | O=C1CCN(c2cnn3ccc(CC4CCN(C(=O)OC5CCCCC5)CC4)cc23)C(=O)N1 [Example 96] | – | –
17 | 44% | 56% | 24800 nM | CC(C)(C)OC(=O)N1CCC(Cc2ccn3ncc(N4CCC(=O)NC4=O)c3c2)CC1 [Example 97, tert-butyl 4-((3-(2,4-dioxotetrahydropyrimidin-1(2H)-yl)pyrazolo[1,5-a]pyridin-5-yl)methyl)piperidine-1-carboxylate] | – | –
18 | 52% | 48% | 1830 nM | O=C1CCN(c2cnn3ccc(CC4CCN(C(=O)C5CCCCC5)CC4)cc23)C(=O)N1 [Example 99] | – | –

Row | Dmax at 25 µM | remaining activity at 25 µM | DC50 | SMILES | Dmax | remaining activity
19 | 42% | 58% | 755 nM | O=C1CCN(c2cnn3ccc(CC4CCN(C(=O)C5(C(F)(F)F)CC5)CC4)cc23)C(=O)N1 [Example 100] | – | –
20 | 33% | 67% | > 25000 nM | O=C1CCN(c2cnn3ccc(CC4CCN(C(=O)c5ccccc5)CC4)cc23)C(=O)N1 [Example 101] | – | –
21 | 40% | 60% | 165 nM | O=C1CCN(c2cnn3ccc(CC4CCN(C(=O)CCc5ccccc5)CC4)cc23)C(=O)N1 [Example 102] | – | –
22 | 28% | 72% | 82 nM | O=C1CCN(c2cnn3ccc(CC4CCN(C(=O)CCC5CCCCC5)CC4)cc23)C(=O)N1 [Example 103] | – | –
23 | 68% | 32% | 283 nM | CC(C)(O)CN1CCC(Cc2ccn3ncc(N4CCC(=O)NC4=O)c3c2)CC1 [Example 106, 1-(5-((1-(2-hydroxy-2-methylpropyl)piperidin-4-yl)methyl)pyrazolo[1,5-a]pyridin-3-yl)dihydropyrimidine-2,4(1H,3H)-dione] | – | –
24 | 78% | 22% | 31 nM | O=C1CCN(c2cnn3ccc(CC4CCN(CC5(F)CCCCC5)CC4)cc23)C(=O)N1 [Example 107, 1-(5-((1-((1-fluorocyclohexyl)methyl)piperidin-4-yl)methyl)pyrazolo[1,5-a]pyridin-3-yl)dihydropyrimidine-2,4(1H,3H)-dione] | – | –
25 | 34% | 66% | 1340 nM | O=C1CCN(c2cnn3ccc(CC4CCNCC4)cc23)C(=O)N1 [Example 108, 1-(5-(piperidin-4-ylmethyl)pyrazolo[1,5-a]pyridin-3-yl)dihydropyrimidine-2,4(1H,3H)-dione] | – | –
26 | 79% | 21% | 44 nM | CC(C)(C)CN1CCC(Cc2ccn3ncc(N4CCC(=O)NC4=O)c3c2)CC1 [Example 110] | – | –
27 | 56% | 44% | 304 nM | O=C1CCN(c2cnn3ccc(CC4CCN(Cc5ccccn5)CC4)cc23)C(=O)N1 [Example 111] | – | –
28 | 66% | 34% | 16 nM | O=C1CCN(c2cnn3ccc(CC4CCN(CC(F)(F)C5CCCCC5)CC4)cc23)C(=O)N1 [Example 112, 1-(5-((1-(2-cyclohexyl-2,2-difluoroethyl)piperidin-4-yl)methyl)pyrazolo[1,5-a]pyridin-3-yl)dihydropyrimidine-2,4(1H,3H)-dione] | – | –
29 | 88% | 12% | 4 nM | C[C@@H]1CC(CN2CCC(Cc3ccn4ncc(N5CCC(=O)NC5=O)c4c3)CC2)C[C@H](C)O1 (stereo partly drawn) [Example 113] | – | –
30 | 68% | 32% | 90 nM | Cn1nccc1CN1CCC(Cc2ccn3ncc(N4CCC(=O)NC4=O)c3c2)CC1 [Example 114] | – | –
31 | 54% | 46% | 267 nM | O=C1CCN(c2cnn3ccc(CC4CCN(Cc5cscn5)CC4)cc23)C(=O)N1 [Example 115] | – | –
32 | 39% | 61% | 1700 nM | Cn1cnc(CN2CCC(Cc3ccn4ncc(N5CCC(=O)NC5=O)c4c3)CC2)c1 [Example 116] | – | –
33 | 90% | 10% | 1 nM | O=C1CCN(c2cnn3ccc(CC4CCN(CC56CC7CC(CC(C7)C5)C6)CC4)cc23)C(=O)N1 [Example 117] | – | –
34 | 64% | 36% | 166 nM | CC1(CN2CCC(Cc3ccn4ncc(N5CCC(=O)NC5=O)c4c3)CC2)COC1 [Example 118, 1-(5-((1-((3-methyloxetan-3-yl)methyl)piperidin-4-yl)methyl)pyrazolo[1,5-a]pyridin-3-yl)dihydropyrimidine-2,4(1H,3H)-dione] | – | –
35 | 82% | 18% | 109 nM | O=C1CCN(c2cnn3ccc(CC4CCN(CC5COC5)CC4)cc23)C(=O)N1 [Example 119, 1-(5-((1-(oxetan-3-ylmethyl)piperidin-4-yl)methyl)pyrazolo[1,5-a]pyridin-3-yl)dihydropyrimidine-2,4(1H,3H)-dione] | – | –
36 | 66% | 34% | 1430 nM | O=C1CCN(c2cnn3ccc(CC4CCN(CCc5c[nH]cn5)CC4)cc23)C(=O)N1 [Example 120, 1-(5-((1-(2-(1H-imidazol-4-yl)ethyl)piperidin-4-yl)methyl)pyrazolo[1,5-a]pyridin-3-yl)dihydropyrimidine-2,4(1H,3H)-dione] | – | –

Row | SMILES | Dmax at 25 µM | remaining activity at 25 µM | DC50 | Dmax | remaining activity
37 | CC(C)C(=O)N1CCC(Cc2ccn3ncc(N4CCC(=O)NC4=O)c3c2)CC1 [Example 98, 1-(5-((1-isobutyrylpiperidin-4-yl)methyl)pyrazolo[1,5-a]pyridin-3-yl)dihydropyrimidine-2,4(1H,3H)-dione] | – | – | 587 nM | 59% | 41%
38 | CC(=O)N1CCC(Cc2ccn3ncc(N4CCC(=O)NC4=O)c3c2)CC1 [Example 104, 1-(5-((1-acetylpiperidin-4-yl)methyl)pyrazolo[1,5-a]pyridin-3-yl)dihydropyrimidine-2,4(1H,3H)-dione] | – | – | 7360 nM | 62% | 38%
39 | COC(C)(C)CN1CCC(Cc2ccn3ncc(N4CCC(=O)NC4=O)c3c2)CC1 [Example 105, 1-(5-((1-(2-methoxy-2-methylpropyl)piperidin-4-yl)methyl)pyrazolo[1,5-a]pyridin-3-yl)dihydropyrimidine-2,4(1H,3H)-dione] | – | – | 2160 nM | 64% | 36%

Source: patent US11787785B2 (NOVARTIS AG, priority 2021, dated 2023)
